The test system of experiment [1] is ID188 patient-derived PDAC 2D line (pre-FOLFIRINOX). Kind of experiment: normalised area under dose-response curve (viability relative to DMSO, 7 doses up to 10 µM) (fraction (AUC)); higher = less sensitive (more viability retained). The conditions noted are these: 72 h; top dose: 10 µM. Here is the method:
(§1)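 Patient-derived 2D PDAC cells (ID188 pre-FOLFIRINOX, passage 5+27; ID211 post-FOLFIRINOX, passage 9+11), 1,500-3,000 cells/well in 96-well plates, were treated with a 415-compound Selleck library in seven concentrations (3-fold dilution series, top 10 µM) for 72 h. Viability was read by CellTiter-Glo ATP luminescence, normalised to the DMSO control, and the area under the dose-response curve was computed with the GRmetrics R package; a lower AUC means higher sensitivity.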

Experiment [2] deals with ID211 patient-derived PDAC 2D line (post-FOLFIRINOX). The description is as above. The conditions noted are these: 72 h; top dose: 10 µM. Here is the method:
as §1

Take `C=CC(=O)Nc1cccc(Oc2nc(Nc3ccc(N4CCN(C)CC4)cc3)nc3ccsc23)c1`: the “normalised area under dose-response curve” value (“normalised area” for short) in experiment [1] was 0.921; in experiment [2], 0.75.

`CC(=O)c1c(C)c2cnc(Nc3ccc(N4CCNCC4)cn3)nc2n(C2CCCC2)c1=O`: the “normalised area” value came to 0.882 in experiment [1] and 0.865 in experiment [2].

With `CC(=O)c1cc([N+](=O)[O-])c(Sc2ccc(F)cc2F)s1`, the results for the “normalised area” value in experiment [1] and in experiment [2] were 0.93 and 0.966, respectively.

In the case of `CC(=O)c1cc([N+](=O)[O-])c(Sc2cccc(Cl)c2Cl)s1`, the “normalised area” value in experiment [1] worked out at 0.98; in experiment [2], 0.848.

On to `CC(C)(C)Cn1c(N)nc2ccc(-c3[nH]c(C(C)(C)C)nc3-c3ccc(F)cc3)nc21`, for which the “normalised area” value amounted to 0.992 in experiment [1] and 0.862 in experiment [2].

`CC(C)c1cc(C(=O)N2Cc3ccc(CN4CCN(C)CC4)cc3C2)c(O)cc1O`: the figures for the “normalised area” value in experiment [1] and in experiment [2] were 0.665 and 0.458, respectively.

Turning to `CCc1cncnc1N1CCN(Cc2nc3ccc(C(F)(F)F)cc3[nH]2)CC1`, the “normalised area” value is 0.92 in experiment [1] and 0.936 in experiment [2].

In the case of `CN(c1ncccc1CNc1nc(Nc2ccc3c(c2)CC(=O)N3)ncc1C(F)(F)F)S(C)(=O)=O`, the “normalised area” value in experiment [1] was 0.89; in experiment [2] it was 0.795.

Turning to `CN1CCN(c2ccc(Nc3ncc4cc(C#N)c(=O)n(C5CCCC5)c4n3)cc2)CC1`, the “normalised area” value in experiment [1] turned out to be 0.98; in experiment [2], 0.852.

For the compound `CNS(=O)(=O)Nc1nccc(Cc2c(C)c3ccc(Oc4ncccn4)cc3oc2=O)c1F`, the entries for the “normalised area” value in experiment [1] and in experiment [2] were 0.679 and 0.409, respectively.

Consider `COc1cc(OC)c(/C=C/S(=O)(=O)Cc2ccc(OC)c(NCC(=O)O)c2)c(OC)c1`, for which the “normalised area” value in experiment [1] stood at 0.746; in experiment [2], 0.557.

As to `COc1ccccc1S(=O)(=O)Nc1ccc2c(c1)CN(C)C(=O)N2`, the entries for the “normalised area” value in experiment [1] and in experiment [2] were 0.921 and 0.753, respectively.

On to `Cc1ccc(C(=O)Nc2ccc(CN3CCN(C)CC3)c(C(F)(F)F)c2)cc1C#Cc1cnc2cccnn12`, for which the “normalised area” value in experiment [1] worked out at 0.782; in experiment [2] it was 0.696.

For `Cc1cnc(NC(=O)Nc2cc(Br)c(C)cc2OC[C@@H]2CNCCO2)cn1`, the entries for the “normalised area” value in experiment [1] and in experiment [2] were 0.731 and 0.869, respectively.

In the case of `Cc1nc(Nc2n[nH]c3c2CN(C(=O)N[C@H](CN(C)C)c2ccccc2)C3(C)C)c2sccc2n1`, the “normalised area” value in experiment [1] stood at 0.578; in experiment [2], 0.551.

For `Cn1cc(C2=C(c3ccc(Cl)cc3Cl)C(=O)NC2=O)c2ccccc21`, the “normalised area” value in experiment [1] came to 0.813; in experiment [2], 0.787.

`N#CC[C@H](C1CCCC1)n1cc(-c2ncnc3[nH]ccc23)cn1`: the entries for the “normalised area” value in experiment [1] and in experiment [2] were 0.945 and 0.892, respectively.

Take `NC(=O)[C@@H](CCC(F)(F)F)N(Cc1ccc(-c2ncon2)cc1F)S(=O)(=O)c1ccc(Cl)cc1`: the “normalised area” value is 0.882 in experiment [1] and 0.77 in experiment [2].

With `NC[C@@](O)(c1ccc(Cl)cc1)c1ccc(-c2cn[nH]c2)cc1`, the “normalised area” value was found to be 1.03 in experiment [1] and 0.981 in experiment [2].

On to `O=C(NNc1ccccc1)c1ccncc1`, for which the “normalised area” value in experiment [1] came out at 0.961; in experiment [2], 0.899.

For the compound `OCc1ccc(-c2ccc(-c3ccc(CO)s3)o2)s1`, the “normalised area” value in experiment [1] was found to be 0.917; in experiment [2], 0.896.

In the case of `Oc1ccc(-c2nc(-c3ccc(F)cc3)c(-c3ccncc3)[nH]2)cc1`, the “normalised area” value worked out at 0.95 in experiment [1] and 1 in experiment [2].

Values taken from the supplement of paper PMC8988213.
